Data from patent US20150315218A1, “SALTS OF PRODRUGS OF PIPERAZINE AND SUBSTITUTED PIPERIDINE ANTIVIRAL AGENTS” (Bristol-Myers Squibb Company, priority 2004, published 2015).
Read-outs that look alike come from different tables or passages of the source.

Legend:
[1] = IV and PO pharmacokinetic studies of prodrug salts (Iab, Ibb, Icb) in the dog, with historical parent data; format: in vivo, beagle dogs; details: for Tmax: read-out: Tmax (hr), PO; for concentration at 24 hr: read-out: C-24 hr (μM), PO; for Cmax: read-out: Cmax (μM), PO
Protocol: The IV and PO studies of Iab were conducted in a crossover fashion in three male beagle dogs (11±1.1 kg, Marshall Farms USA Inc., North Rose, N.Y.). There was a two-week washout period between the IV and PO studies.
(§1) In the IV study, Iab was infused via the cephalic vein at 1.2 mg/kg (free acid, or 0.95 mg/kg of IVa equivalent) over 5 min at a constant rate of 0.1 mL/kg/min. The concentration of the dosing solution was 2.4 mg/mL, and the dosing volume was 0.5 mL/kg. Serial blood samples were collected from the femoral artery before dosing and at 5, 10, 15, 30, 45 min, 1, 2, 4, 6, 8 and 24 hr after dosing.
In the PO study, the dogs were fasted overnight before dosing. Iab was administered by oral gavage at 6.6 mg/kg (free acid, or 5.2 mg/kg of IVa equivalent). The concentration of the dosing solution was 13.2 mg/mL, and the dosing volume was 0.5 mL/kg. Serial blood samples were collected before dosing and at 15, 30, 45 min, 1, 2, 4, 6, 8 and 24 hr after dosing.
The IV and PO studies of Ibb were conducted in male beagle dogs (10±0.78 kg, Marshall Farms USA Inc., North Rose, N.Y.). Three dogs were used in each study. Of the three dogs, two same dogs were used for both IV and PO studies. There was a two-week washout period between the IV and PO studies.
The concentration of the dosing solution was 2.6 mg/mL, and the dosing volume was 0.5 mL/kg. Serial blood samples were collected from the femoral artery before dosing and at 5, 10, 15, 30, 45 min, 1, 2, 4, 6, 8 and 24 hr after dosing.
In the PO study, the dogs were fasted overnight before dosing. […] The concentration of the dosing solution was 7.0 mg/mL, and the dosing volume was 1 mL/kg. Serial blood samples were collected before dosing and at 15, 30, 45 min, 1, 2, 4, 6, 8 and 24 hr after dosing.
The IV and PO studies of Icb were conducted in a crossover fashion in three male beagle dogs (12±2.8 kg, Marshall Farms USA Inc., North Rose, N.Y.). There was a two-week washout period between the IV and PO studies.
as §1, with “Icb” for “Iab”, “1.3” for “1.2”, “1.0” for “0.95”, “IVe” for “IVa”, “2.6” for “2.4”
In the PO study, the dogs were fasted overnight before dosing. […] The concentration of the dosing solution was 12 mg/mL, and the dosing volume was 0.5 mL/kg. Serial blood samples were collected before dosing and at 15, 30, 45 min, 1, 2, 4, 6, 8 and 24 hr after dosing.

[2] = Single-dose toxicokinetic and tolerability study of prodrugs in dogs; format: in vivo, dog; details: for half-life: read-out: T½ (converted)
Protocol: A multi-phase study was conducted to evaluate the tolerability of the prodrug, Iab (monolysine salt) at dosages of 24, 90, or 240 mg/kg (free acid, molar equivalent to 19, 71, or 190 mg/kg of parent IVa, respectively) and the toxicokinetics of lab and IVa (4). Iab was administered to two female dogs/group once daily either as an aqueous solution (24 or 90 mg/kg) or dry-filled capsules (24, 90 [once and twice daily] or 240 mg/kg). The endpoints were: clinical signs, body weight, food consumption, and plasma toxicokinetics of lab and IVa. In all cases, a 1-week washout period was used between doses for all phases of the study. […]
On day 1, Icb was administered to one dog/sex/group once daily in dry-filled capsules at the above dosages. A 1-week washout period was used between doses in the study. On day 8, Icb was administered to one dog/sex/group once daily as an aqueous solution at 25 mg/kg or twice daily in dry-filled capsules at 46 or 125 mg/kg BID.

[3] = male, beagle, plasma, 6.6 mg/kg, after oral prodrug, analyte = label, ND = not detected
[4] = plasma, historical parent, PO 5 mg/kg
[5] = IVa, Iab 24 mg/kg Solution, Dogs #1201, #1202
[6] = IVa, Iab 90 mg/kg Solution, Dogs #3201, #3202
[7] = Table 14: 90 mg/kg, Dogs #1201, #1202, 90 mg/kg
[8] = Table 14: 240 mg/kg, Dogs #2201, #2202, 240 mg/kg
[9] = female, dog, plasma, po, 24 mg/kg, IVa, Iab 24 mg/kg Dry-filled capsule, Dogs #4201, #4202
[10] = female, dog, plasma, po, 24 mg/kg, IVa, Iab 24 mg/kg Solution, Dogs #1201, #1202
[11] = female, dog, plasma, po, 90 mg/kg, IVa, Iab 90 mg/kg Solution, Dogs #3201, #3202
[12] = female, dog, plasma, po, 90 mg/kg, Table 14: 90 mg/kg, Dogs #1201, #1202
[13] = female, dog, plasma, po, 240 mg/kg, Table 14: 240 mg/kg, Dogs #2201, #2202

COc1ncc(OC)c2c(C(=O)C(=O)N3CCN(C(=O)c4ccccc4)CC3)c[nH]c12 [IVa, N-(benzoyl)-N′-[(4,7-dimethoxy-6-azaindol-3-yl)-oxoacetyl]piperazine]
IV AUC Ratio of parent (formed from prodrug vs historical parent study) [1]: 0.80 | Bioavailability (%) ([1]; beagle, in vivo, po, 5 mg/kg): 57% | Tmax ([1]; beagle, plasma, historical parent, PO 5 mg/kg): 2.9 h | AUC ([1]; male, beagle, plasma, 6.6 mg/kg, after oral prodrug, analyte = label, ND = not detected, read-out: AUCtot (μM · hr), PO): 83 ± 16 µM·h | concentration at 24 hr [1, 3]: 0.26 ± 0.12 µM | Cmax [1, 3]: 14 ± 1.3 µM | half-life ([1]; male, beagle, plasma, 6.6 mg/kg, parent after oral prodrug, read-out: t1/2 (hr), PO (converted)): 4.1 ± 0.52 h | AUC ([1]; male, beagle, plasma, after IV prodrug (~1 mg/kg parent equivalent), analyte = label, read-out: AUCtot (μM · hr), IV): 13 ± 2.2 µM·h | half-life ([1]; male, beagle, plasma, after IV prodrug, analyte = label, read-out: t1/2 (hr), IV (converted)): 5.2 ± 1 h | bioavailability ([1]; male, beagle, plasma, oral prodrug, read-out: Bioavailability (%) of parent from prodrug): 94% | Tmax ([1]; male, beagle, plasma, parent after oral prodrug (~5 mg/kg parent equivalent)): 0.25 h | PO AUC Ratio of parent ([1]; oral prodrug vs historical parent): 1.7 | AUC ([1]; plasma, historical parent, IV 1 mg/kg, read-out: AUCtot (μM · hr), IV): 17 ± 3.5 µM·h | clearance ([1]; plasma, historical parent, IV 1 mg/kg, read-out: CLtot (mL/min/kg), IV): 2.4 ± 0.43 mL/min/kg | MRT ([1]; plasma, historical parent, IV 1 mg/kg, read-out: MRT (hr), IV): 3.3 ± 0.71 h | Vd ([1]; plasma, historical parent, IV 1 mg/kg, read-out: Vdss (L/kg), IV): 0.45 ± 0.083 L/kg | half-life ([1]; plasma, historical parent, IV 1 mg/kg, read-out: t1/2 (hr), IV (converted)): 2.6 ± 1.2 h | AUC ([1]; plasma, historical parent, PO 5 mg/kg, read-out: AUCtot (μM · hr), PO): 47 ± 7.2 µM·h | concentration at 24 hr [1, 4]: 0.15 ± 0.093 µM | Cmax [1, 4]: 6.5 ± 1.2 µM | half-life ([1]; plasma, historical parent, PO 5 mg/kg, read-out: t1/2 (hr), PO (converted)): 3.8 ± 0.81 h | Cmax ([2]; IVa in female dogs, Iab 24 mg/kg (19 IVa equiv.), Dry-filled capsule, Dogs #4201, #4202): 85.6 µM | Cmax ([2]; IVa in female dogs, Iab 24 mg/kg (19 IVa equiv.), Solution, Dogs #1201, #1202): 66.5 µM | Cmax ([2]; IVa in female dogs, Iab 90 mg/kg (71 IVa equiv.), Solution, Dogs #3201, #3202): 125 µM | AUC0-∞ ([2]; IVa, Iab 24 mg/kg Dry-filled capsule, Dogs #4201, #4202): 514 µM·h | concentration at 24 h ([2]; IVa, Iab 24 mg/kg Dry-filled capsule, Dogs #4201, #4202, read-out: C24h): 0.87 µM | AUC0-∞ [2, 5]: 330 µM·h | T½ [2, 5]: 3.1 h | concentration at 24 h ([2]; IVa, Iab 24 mg/kg Solution, Dogs #1201, #1202, read-out: C24h): 0.33 µM | AUC0-∞ [2, 6]: 838 µM·h | T½ [2, 6]: 3.9 h | concentration at 24 h ([2]; IVa, Iab 90 mg/kg Solution, Dogs #3201, #3202, read-out: C24h): 2.2 µM | AUC0-∞ [2, 7]: 960 µM·h | T½ [2, 7]: 2.9 h | Cmax ([2]; Table 14: 240 mg/kg (190 IVa equiv.), Formulation Solution, Dogs #2201, #2202, 240 mg/kg): 189 µM | AUC0-∞ [2, 8]: 1584 µM·h | T½ [2, 8]: 4.5 h | Cmax ([2]; Table 14: 180 (90 BID) mg/kg (142 IVa equiv.), Dry-filled capsule, Dogs #3201, #3202): 248 µM | AUC0-∞ ([2]; Table 14: 180 (90 BID) mg/kg, Dogs #3201 (AUC from zero to 24 h), #3202): 2485 µM·h | concentration at 24 h ([2]; Table 14: 180 (90 BID) mg/kg, Dogs #3201, #3202, read-out: C24h): 50 µM | Cmax ([2]; Table 14: IVa in female dogs, 90 mg/kg (71 IVa equiv.), Formulation Solution, Dogs #1201, #1202, 90 mg/kg): 152 µM | time post-dose at which mean Cmax of parent was achieved ([2]; dogs, once daily (QD) dosing of prodrug): 1 to 2 h | concentration at 24 h ([2]; female, dog, plasma, oral, 24 mg/kg, IVa, Iab 24 mg/kg Dry-filled capsule, Dogs #4201, #4202, read-out: C24 h): 1.4 µM | concentration at 24 h ([2]; female, dog, plasma, oral, 24 mg/kg, IVa, Iab 24 mg/kg Solution, Dogs #1201, #1202, read-out: C24 h): 0.61 µM | concentration at 24 h ([2]; female, dog, plasma, oral, 90 mg/kg, IVa, Iab 90 mg/kg Solution, Dogs #3201, #3202, read-out: C24 h): 3.2 µM | concentration at 24 h ([2]; female, dog, plasma, oral, Table 14: 180 (90 BID) mg/kg, Dogs #3201, #3202, read-out: C24 h): 34 µM | Cmax ([2]; female, dog, plasma, po, 24 mg/kg, IVa in female dogs, Iab 24 mg/kg (19 IVa equiv.), Dry-filled capsule, Dogs #4201, #4202): 79.7 µM | Cmax ([2]; female, dog, plasma, po, 24 mg/kg, IVa in female dogs, Iab 24 mg/kg (19 IVa equiv.), Solution, Dogs #1201, #1202): 72.3 µM | AUC(0-inf) [2, 9]: 486 µM·h | half-life [2, 9]: 4.2 h | AUC(0-inf) [2, 10]: 465 µM·h | half-life [2, 10]: 3.2 h | Cmax ([2]; female, dog, plasma, po, 90 mg/kg, IVa in female dogs, Iab 90 mg/kg (71 IVa equiv.), Solution, Dogs #3201, #3202): 124 µM | AUC(0-inf) [2, 11]: 844 µM·h | half-life [2, 11]: 4.4 h | AUC(0-inf) [2, 12]: 1740 µM·h | half-life [2, 12]: 3.6 h | Cmax ([2]; female, dog, plasma, po, 90 mg/kg, Table 14: IVa in female dogs, 90 mg/kg (71 IVa equiv.), Formulation Solution, Dogs #1201, #1202): 214 µM | Cmax ([2]; female, dog, plasma, po, 240 mg/kg, Table 14: 240 mg/kg (190 IVa equiv.), Formulation Solution, Dogs #2201, #2202): 172 µM | AUC(0-inf) [2, 13]: 1190 µM·h | half-life [2, 13]: 3.7 h | Cmax ([2]; female, dog, plasma, po, Table 14: 180 (90 BID) mg/kg (142 IVa equiv.), Dry-filled capsule, Dogs #3201, #3202): 311 µM | AUC(0-inf) ([2]; female, dog, plasma, po, Table 14: 180 (90 BID) mg/kg, Dogs #3201 (AUC from zero to 24 h), #3202): 3300 µM·h
